Source: patent US10131652B2, “Pyrimidinyloxy benzene derivatives as herbicides” (E. I. DU PONT DE NEMOURS AND COMPANY, priority 2014, dated 2018)

Columns and labels:
Type in all cases: in vivo
[1] = test system: pigweed (Amaranthus retroflexus); experiment: Test B pre-/postemergence plant response
Source text: (§1) Seeds of plant species selected from bamyardgrass (Echinochloa crus-galli), kochia (Kochia scoparia), ragweed (common ragweed, Ambrosia elatior), Italian ryegrass (Lolium multiflorum), large (Lg) crabgrass (Digitaria sanguinalis), giant foxtail (Setaria faberii), momingglory (Ipomoea spp.), pigweed (Amaranthus retroflexus), velvetleaf (Abutilon theophrasti), wheat (Triticum aestivum), and corn (Zea mays) were planted into a blend of loam soil and sand and treated preemergence with a directed soil spray using test chemicals formulated in a non-phytotoxic solvent mixture which included a surfactant. At the same time, plants selected from these crop and weed species and also blackgrass (Alopecurus myosuroides), and galium (catchweed bedstraw, Galium aparine) were planted in pots containing the same blend of loam soil and sand and treated with postemergence applications of test chemicals formulated in the same manner. Plants ranged in height from 2 to 10 cm and were in the one- to two-leaf stage for the postemergence treatment. Treated plants and untreated controls were maintained in a greenhouse for approximately 10 days, after which time all treated plants were compared to untreated controls and visually evaluated for injury. Plant response ratings, summarized in Table B, are based on a 0 to 100 scale where 0 is no effect and 100 is complete control. A dash (-) response means no test result.

[2] = test system: Italian ryegrass (Lolium multiflorum); experiment: Test B pre-/postemergence plant response
Source text: as §1

corn (Zea mays) = experiment: Test B pre-/postemergence plant response; details: 0 to 100 scale, 0 no effect, 100 complete control
Source text: as §1

[3] = test system: wheat (Triticum aestivum); experiment: Test B pre-/postemergence plant response; details: 0 to 100 scale, 0 no effect, 100 complete control
Source text: as §1

[4] = test system: ragweed (common ragweed, Ambrosia elatior); experiment: Test B pre-/postemergence plant response
Source text: as §1

[5] = test system: giant foxtail (Setaria faberii); experiment: Test B pre-/postemergence plant response
Source text: as §1

[6] = test system: barnyardgrass (Echinochloa crus-galli); experiment: Test B pre-/postemergence plant response
Source text: as §1

kochia (Kochia scoparia) = experiment: Test B pre-/postemergence plant response
Source text: as §1

[7] = test system: blackgrass (Alopecurus myosuroides); experiment: Test B postemergence plant response; details: 0 to 100 scale, 0 no effect, 100 complete control
Outline: (§2)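 Visual injury ratings, 0 = no effect to 100 = complete control, versus untreated controls approximately 10 days after postemergence spraying in greenhouse. Plants were at one- to two-leaf stage, 2 to 10 cm tall, in loam soil/sand blend; a dash denotes no result.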

[8] = test system: galium (catchweed bedstraw, Galium aparine); experiment: Test B postemergence plant response; details: 0 to 100 scale, 0 no effect, 100 complete control
Outline: as §2

[9] = test system: small-flower umbrella sedge (Cyperus difformis); experiment: Test C flooded paddy test plant response; details: Flood, 250 g ai/ha; scale of 0 to 100 where 0 is no effect and 100 is complete control; 13 to 15 days
Outline: (§3)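 Visual injury ratings (0, no effect; 100, complete control) were assigned after 13 to 15 days in a greenhouse, comparing treated plants with controls. Compounds had been added straight into paddy water over 2-leaf-stage plants flooded to 3 cm.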

[10] = test system: ducksalad (Heteranthera limosa); experiment: Test C flooded paddy test plant response; details: Flood, 250 g ai/ha; scale of 0 to 100 where 0 is no effect and 100 is complete control; 13 to 15 days
Outline: as §3

rice (Oryza sativa) = experiment: Test C flooded paddy test plant response; details: Flood, 250 g ai/ha; scale of 0 to 100 where 0 is no effect and 100 is complete control; 13 to 15 days
Outline: as §3

[11] = test system: barnyardgrass (Echinochloa crus-galli); experiment: Test C flooded paddy test plant response; details: Flood, 250 g ai/ha; scale of 0 to 100 where 0 is no effect and 100 is complete control; 13 to 15 days
Outline: as §3

[12] = 31 g ai/ha, Postemergence, 0 to 100 scale, 0 no effect, 100 complete control
[13] = 31 g ai/ha, Preemergence, 0 to 100 scale where 0 is no effect and 100 is complete control
[14] = 125 g ai/ha, postemergence, 0 to 100 scale, 0 no effect, 100 complete control
[15] = Preemergence, 125 g ai/ha, 0 to 100 scale where 0 is no effect and 100 is complete control

SMILES | Plant response rating, Pigweed [1, 13] | Plant response rating, Pigweed [1, 14] | Plant response rating, Ryegrass, Italian [2, 13] | Plant response rating, Ryegrass, Italian [2, 14] | Plant response rating, Corn (corn (Zea mays); 31 g ai/ha, Postemergence) | Plant response rating, Corn (corn (Zea mays); 125 g ai/ha, postemergence) | Plant response rating, Wheat ([3]; 125 g ai/ha, postemergence) | Plant response rating, Ragweed [4, 13] | Plant response rating, Ragweed [4, 14] | Plant response rating, Foxtail, Giant [5, 12] | Plant response rating, Foxtail, Giant [5, 13] | Plant response rating, Foxtail, Giant [5, 14] | Plant response rating, Foxtail, Giant [5, 15] | Plant response rating, Barnyardgrass [6, 12] | Plant response rating, Barnyardgrass [6, 13] | Plant response rating, Barnyardgrass [6, 14] | Plant response rating, Barnyardgrass [6, 15] | Plant response rating, Kochia (kochia (Kochia scoparia); [13]) | Plant response rating, Kochia (kochia (Kochia scoparia); [14]) | Plant response rating, Kochia (kochia (Kochia scoparia); [15]) | further results
N#Cc1cccc(Oc2ncc(Cl)cn2)c1-c1ccsc1 [Compound 112] | 30 | 30 | 0 | 0 | 10 | 20 | 0 | 0 | 30 | 10 | 10 | 60 | 70 | 10 | 10 | 30 | 30 | 0 | 70 | 50 | Plant response rating, Pigweed [1, 12]: 30; Plant response rating, Ryegrass, Italian [2, 12]: 0; Plant response rating, Wheat ([3]; 31 g ai/ha, Postemergence): 0; Plant response rating, Ragweed [4, 12]: 20; Plant response rating, Kochia (kochia (Kochia scoparia); [12]): 60; Plant response rating, Blackgrass ([7]; 31 g ai/ha, Postemergence): 0; Plant response rating, Blackgrass ([7]; 125 g ai/ha, postemergence): 20; Plant response rating, Galium ([8]; 31 g ai/ha, Postemergence): 30; Plant response rating, Galium ([8]; 125 g ai/ha, postemergence): 50; Sedge, Umbrella plant response rating [9]: 95; Ducksalad plant response rating [10]: 30; Rice plant response rating (rice (Oryza sativa)): 0; Barnyardgrass plant response rating [11]: 0
Fc1ccc(Oc2ncc(Cl)cn2)c(-c2cc(C(F)F)on2)c1Br [Compound 114] | 70 | 100 | 0 | 60 | 30 | 50 | 20 | 0 | 20 | 20 | 10 | 60 | 30 | 10 | 0 | 20 | 20 | 20 | 90 | 20 | Plant response rating, Pigweed [1, 12]: 100; Plant response rating, Ryegrass, Italian [2, 12]: 10; Plant response rating, Wheat ([3]; 31 g ai/ha, Postemergence): 10; Plant response rating, Ragweed [4, 12]: 0; Plant response rating, Kochia (kochia (Kochia scoparia); [12]): 70; Plant response rating, Blackgrass ([7]; 31 g ai/ha, Postemergence): 10; Plant response rating, Blackgrass ([7]; 125 g ai/ha, postemergence): 40; Plant response rating, Galium ([8]; 31 g ai/ha, Postemergence): 70; Plant response rating, Galium ([8]; 125 g ai/ha, postemergence): 100; Sedge, Umbrella plant response rating [9]: 75; Ducksalad plant response rating [10]: 75; Rice plant response rating (rice (Oryza sativa)): 15; Barnyardgrass plant response rating [11]: 0
Cn1cnc(-c2ccccc2Oc2ncc(Cl)cn2)n1 [Compound 115] | 0 | 0 | 0 | 0 | 0 | 0 | 0 | 0 | 0 | 0 | 0 | 0 | 0 | 0 | 0 | 0 | 0 | 0 | 0 | 0 | Plant response rating, Pigweed [1, 12]: 0; Plant response rating, Ryegrass, Italian [2, 12]: 0; Plant response rating, Wheat ([3]; 31 g ai/ha, Postemergence): 0; Plant response rating, Ragweed [4, 12]: 0; Plant response rating, Kochia (kochia (Kochia scoparia); [12]): 0; Plant response rating, Blackgrass ([7]; 31 g ai/ha, Postemergence): 0; Plant response rating, Blackgrass ([7]; 125 g ai/ha, postemergence): 0; Plant response rating, Galium ([8]; 31 g ai/ha, Postemergence): 0; Plant response rating, Galium ([8]; 125 g ai/ha, postemergence): 0; Sedge, Umbrella plant response rating [9]: 0; Ducksalad plant response rating [10]: 0; Rice plant response rating (rice (Oryza sativa)): 0; Barnyardgrass plant response rating [11]: 0
Cn1ncnc1-c1ccccc1Oc1ncc(Cl)cn1 [Compound 117] | 0 | 0 | 0 | 0 | 0 | 0 | 0 | 0 | 0 | 0 | 0 | 0 | 0 | 0 | 0 | 0 | 0 | 0 | 0 | 0 | Plant response rating, Pigweed [1, 12]: 0; Plant response rating, Ryegrass, Italian [2, 12]: 0; Plant response rating, Wheat ([3]; 31 g ai/ha, Postemergence): 0; Plant response rating, Ragweed [4, 12]: 0; Plant response rating, Kochia (kochia (Kochia scoparia); [12]): 0; Plant response rating, Blackgrass ([7]; 31 g ai/ha, Postemergence): 0; Plant response rating, Blackgrass ([7]; 125 g ai/ha, postemergence): 0; Plant response rating, Galium ([8]; 31 g ai/ha, Postemergence): 0; Plant response rating, Galium ([8]; 125 g ai/ha, postemergence): 0; Sedge, Umbrella plant response rating [9]: 0; Ducksalad plant response rating [10]: 0; Rice plant response rating (rice (Oryza sativa)): 0; Barnyardgrass plant response rating [11]: 0
Brc1cnc(Oc2ccccc2-c2cc(Br)no2)nc1 [Compound 119] | 0 | 80 | 0 | 0 | 0 | 0 | 0 | 0 | 10 | 0 | 0 | 10 | 50 | 0 | 0 | 0 | 0 | 0 | 30 | 10 | Plant response rating, Pigweed [1, 12]: 40; Plant response rating, Ryegrass, Italian [2, 12]: 0; Plant response rating, Wheat ([3]; 31 g ai/ha, Postemergence): 0; Plant response rating, Ragweed [4, 12]: 10; Plant response rating, Kochia (kochia (Kochia scoparia); [12]): 0; Plant response rating, Blackgrass ([7]; 31 g ai/ha, Postemergence): 0; Plant response rating, Blackgrass ([7]; 125 g ai/ha, postemergence): 0; Plant response rating, Galium ([8]; 31 g ai/ha, Postemergence): 30; Plant response rating, Galium ([8]; 125 g ai/ha, postemergence): 60; Sedge, Umbrella plant response rating [9]: 40; Ducksalad plant response rating [10]: 40; Rice plant response rating (rice (Oryza sativa)): 0; Barnyardgrass plant response rating [11]: 0
Clc1cnc(Oc2ccccc2-c2nnc(C3CC3)o2)nc1 [Compound 122] | 10 | 20 | 0 | 0 | 0 | 0 | 20 | 0 | 10 | 0 | 0 | 0 | 0 | 0 | 0 | 0 | 0 | 0 | 20 | 10 | Plant response rating, Blackgrass ([7]; 31 g ai/ha, Postemergence): 0; Plant response rating, Blackgrass ([7]; 125 g ai/ha, postemergence): 0; Plant response rating, Galium ([8]; 125 g ai/ha, postemergence): 20; Sedge, Umbrella plant response rating [9]: 0; Ducksalad plant response rating [10]: 0; Rice plant response rating (rice (Oryza sativa)): 0; Barnyardgrass plant response rating [11]: 0
